Test results published in patent publication US20250295652A1, “Inhibitors of Molluscum Contagiosum Infection and Methods Using the Same” (priority 2021, published 2025).
Like-named read-outs stand apart in the source and are kept apart here.

Tests used:
VV = assay: microbe, parasite or virus in culture; assay type: cell-based, vaccinia virus
mD4-VV surrogate virus = assay: microbe, parasite or virus in culture; assay type: cell-based, mD4/vaccinia hybrid virus; conditions: Hybrid virus, BSC-1, read-out: mD4 EC50
[1] = molecular target: E9/A20/D4 proteins (molluscum mD4) (Molluscum contagiosum virus, UniProt Q98260); assay: biochemical
[2] = Orthopoxvirus vaccinia, BSC-1, read-out: VV EC50

E9/A20/D4 proteins (molluscum mD4), sequence (Q98260 1-226): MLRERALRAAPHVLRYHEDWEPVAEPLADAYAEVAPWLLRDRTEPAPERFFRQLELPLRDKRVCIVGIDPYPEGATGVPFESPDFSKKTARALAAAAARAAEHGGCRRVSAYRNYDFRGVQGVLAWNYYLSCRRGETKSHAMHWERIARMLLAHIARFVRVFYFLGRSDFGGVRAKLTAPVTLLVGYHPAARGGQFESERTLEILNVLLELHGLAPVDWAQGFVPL

SMILES	EC50 (VV; [2]) [µM]	also measured
CCC(C(=O)Nc1sc(C(=O)N(CC)CC)c(C)c1C(=O)OC)c1ccccc1 (stereo not drawn) [Compound 24, methyl 5-(diethylcarbamoyl)-4-methyl-2-(2-phenylbutanamido)thiophene-3-carboxylate]	16.4	
COC(=O)c1c(NC(=O)C2CCc3ccccc32)sc(C(N)=O)c1C (stereo not drawn) [Compound 35, 5-Carbamoyl-2-[(indane-1-carbonyl)-amino]-4-methyl-thiophene-3-carboxylic acid methyl ester]	20.4	
O=C(NCc1ccc(F)cc1)c1nnsc1NC(=O)N1CCN(c2ccccn2)CC1 [Compound 180, N-(4-(4-Fluorobenzylcarbamoyl)-1,2,3-thiadiazol-5-yl)-4-(pyridin-2-yl)piperazine-1-carboxamide]		EC50 (mD4-VV surrogate virus): 12.9 µM; IC50 [1]: 39 µM
COc1ccc(N2CCN(C(=O)Nc3snnc3C(=O)NCc3ccc(Cl)cc3)CC2)cc1 [Compound 86, N-(4-chlorobenzyl)-5-(4-(4-methoxyphenyl)piperazine-1-carboxamido)-1,2,3-thiadiazole-4-carboxamide]	32.6	
CCC(C(=O)Nc1sccc1C(N)=O)c1ccccc1 (stereo not drawn) [Compound 31, 2-(2-phenylbutanamido)thiophene-3-carboxamide]	49.7	
CC[C@H](C(=O)Nc1sc(C(N)=O)c(C)c1C(=O)OC)c1ccccc1 [Compound 15, methyl (S)-5-carbamoyl-4-methyl-2-(2-phenylbutanamido)thiophene-3-carboxylate]	17.9	
CCC(C(=O)Nc1snc(C)c1C#N)c1ccccc1 (stereo not drawn) [Compound 68, N-(4-Cyano-3-methyl-isothiazol-5-yl)-2-phenyl-butyramide]	8.6	
CCC(C(=O)Nc1sncc1C#N)c1ccccc1 (stereo not drawn) [Compound 90, N-(4-Cyano-isothiazol-5-yl)-2-phenyl-butyramide]	21.8	
CCC(C(=O)Nc1nc(-c2ccccc2)cs1)c1ccccc1 (stereo not drawn) [Compound 76, 2-phenyl-N-(4-phenylthiazol-2-yl)butanamide]	18.4	
CCC(C(=O)Nc1sccc1C(=O)NCc1ccc(F)cc1)c1ccccc1 (stereo not drawn) [Compound 179, 2-(2-Phenylbutanamido)-N-(4-fluorobenzyl)thiophene-3-carboxamide]		EC50 (mD4-VV surrogate virus): 9.5 µM; IC50 [1]: 51.3 µM
Cc1nsc(NC(=O)C2CCc3ccccc32)c1C#N (stereo not drawn) [Compound 87, Indan-1-carboxylic acid (4-cyano-3-methyl-isothiazol-5-yl)-amide]	17	
CC[C@@H](C(=O)Nc1sc(C(N)=O)c(C)c1C(=O)OC)c1ccccc1 [Compound 17, methyl (R)-5-carbamoyl-4-methyl-2-(2-phenylbutanamido)thiophene-3-carboxylate]		EC50 (VV; read-out: VV EC50): 26.8 µM
CCC(C(=O)Nc1sccc1C(=O)NCc1ccccc1)c1ccccc1 (stereo not drawn) [Compound 161, 2-(2-Phenylbutanamido)-N-benzylthiophene-3-carboxamide]		EC50 (mD4-VV surrogate virus): 12 µM; IC50 [1]: 140 µM
CCC(C(=O)Nc1sc(C)c(C)c1C(=O)OC)c1ccccc1 (stereo not drawn) [Compound 26, methyl 4,5-dimethyl-2-(2-phenylbutanamido)thiophene-3-carboxylate]	45.3	
CCC(C(=O)Nc1ncc(C(=O)OC)s1)c1ccccc1 (stereo not drawn) [Compound 77, methyl 2-(2-phenylbutanamido)thiazole-5-carboxylate]	21.4	
CCOC(=O)c1sc(NC(=O)C(CC)c2ccccc2)c(C(N)=O)c1C (stereo not drawn) [Compound 19, ethyl 4-carbamoyl-3-methyl-5-(2-phenylbutanamido)thiophene-2-carboxylate]	31.3	
CCC(C(=O)Nc1cc(C)c(C(=O)OC)s1)c1ccccc1 (stereo not drawn) [Compound 22, 3-Methyl-5-(2-phenyl-butyrylamino)-thiophene-2-carboxylic acid methyl ester]	26.8	
COc1ccc(CN(Cc2ccc(OC)cc2)C(Cc2ccccc2)C(=O)Nc2sc(C(N)=O)c(C)c2C#N)cc1 (stereo not drawn) [Compound 57, 5-(2-{Bis[(4-methoxyphenyl)methyl]amino}-3-phenylpropanamido)-4-cyano-3-methylthiophene-2-carboxamide]	20.8	
COC(=O)c1c(NC(=O)C2(c3ccccc3)CC2)sc(C(N)=O)c1C [Compound 36, 5-Carbamoyl-4-methyl-2-[(1-phenyl-cyclopropanecarbonyl)-amino]-thiophene-3-carboxylic acid methyl ester]	14.3	
CCC(C(=O)Nc1sccc1C(=O)NCc1ccc(Cl)cc1)c1ccccc1 (stereo not drawn) [Compound 110, 2-(2-Phenylbutanamido)-N-(4-chlorobenzyl)thiophene-3-carboxamide]		EC50 (mD4-VV surrogate virus): 8 µM; IC50 [1]: > 100 µM
O=C(NCc1ccccc1)c1nnsc1NC(=O)N1CCN(c2ccccn2)CC1 [Compound 119, 4-Pyridin-2-yl-piperazine-1-carboxylic acid (4-benzylcarbamoyl-[1,2,3]thiadiazol-5-yl)-amide]		EC50 (mD4-VV surrogate virus): 10.3 µM; IC50 [1]: > 100 µM
Cc1c(C(N)=O)sc(NC(=O)C2CCCC2)c1C#N [Compound 40, 4-cyano-5-(cyclopentanecarboxamido)-3-methylthiophene-2-carboxamide]	47.4	

SMILES	EC50 (VV; [2]) [µM]	also measured
O=C(NCCN1CCOCC1)Nc1snnc1C(=O)NCc1ccc(Cl)cc1 [Compound 183, 1-(4-(4-Chlorobenzylcarbamoyl)-1,2,3-thiadiazol-5-yl)-3-(2-morpholinoethyl)urea]		EC50 (mD4-VV surrogate virus): 11.9 µM; IC50 [1]: > 100 µM
CCC(C(=O)Nc1sccc1C(=O)NCc1ccc(F)c(F)c1)c1ccccc1 (stereo not drawn) [Compound 160, 2-(2-Phenylbutanamido)-N-(3,4-difluorobenzyl)thiophene-3-carboxamide]		EC50 (mD4-VV surrogate virus): 10.6 µM; IC50 [1]: 128 µM
CCOC(=O)c1sc(NC(=O)C(CC)c2ccccc2)cc1C (stereo not drawn) [Compound 72, ethyl 3-methyl-5-(2-phenylbutanamido)thiophene-2-carboxylate]	19.1	
CCC(C(=O)Nc1sc(C(N)=O)c(C)c1C#N)c1ccc([N+](=O)[O-])cc1 (stereo not drawn) [Compound 75, 5-(2-(4-Nitrophenyl)butanamido)-4-cyano-3-methylthiophene-2-carboxamide]	35	
COC(=O)c1c(NC(=O)C(Cc2ccccc2)N2C(=O)c3ccccc3C2=O)sc(C(N)=O)c1C (stereo not drawn) [Compound 33, 5-Carbamoyl-2-[2-(1,3-dioxo-1,3-dihydro-isoindol-2-yl)-3-phenyl-propionylamino]-4-methyl-thiophene-3-carboxylic acid methyl ester]	43.6	
CCC(C(=O)Nc1sc(C(=O)OC)cc1C#N)c1ccccc1 (stereo not drawn) [Compound 82, Methyl 5-(2-phenylbutanamido)-4-cyanothiophene-2-carboxylate]	11	
CCC(C(=O)Nc1snc(C)c1C(=O)OC)c1ccccc1 (stereo not drawn) [Compound 89, 3-Methyl-5-(2-phenyl-butyrylamino)-isothiazole-4-carboxylic acid methyl ester]	29.3	
CCC(C(=O)N(C(=O)C(CC)c1ccccc1)c1sc(C)c(C)c1C#N)c1ccccc1 (stereo not drawn) [Compound 39, N-(3-Cyano-4,5-dimethyl-thiophen-2-yl)-2-phenyl-N-(2-phenyl-butyryl)-butyramide]	11	
CCOC(=O)c1c(NC(=O)C(CC)c2ccccc2)sc(C(N)=O)c1C (stereo not drawn) [Compound 8, ethyl 5-carbamoyl-4-methyl-2-(2-phenylbutanamido)thiophene-3-carboxylate]	10.3	
CC[C@@H](C(=O)Nc1sc(C(N)=O)c(C)c1C(=O)OC)c1ccccc1 [Compound 16, methyl (R)-5-carbamoyl-4-methyl-2-(2-phenylbutanamido)thiophene-3-carboxylate]	16.4	
CCOC(=O)c1c(NC(=O)C(CC)c2ccccc2)sc(C(=O)N(C)C)c1C (stereo not drawn) [Compound 5, ethyl 5-(dimethylcarbamoyl)-4-methyl-2-(2-phenylbutanamido)thiophene-3-carboxylate]	29.7	
CCOC(=O)c1c(NC(=O)C2CCCCC2)sc(C(N)=O)c1C [Compound 4, ethyl 5-carbamoyl-2-(cyclohexanecarboxamido)-4-methylthiophene-3-carboxylate]	48.9	
CCC(C(=O)Nc1scc(C)c1C(=O)OC)c1ccccc1 (stereo not drawn) [Compound 32, 4-Methyl-2-(2-phenyl-butyrylamino)-thiophene-3-carboxylic acid methyl ester]	32.9	
CCC(C(=O)Nc1cc(C)cs1)c1ccccc1 (stereo not drawn) [Compound 34, N-(4-methyl-thiophen-2-yl)-2-phenyl-butyramide]	46.7	
O=C(NCc1ccc(Cl)cc1)c1nnsc1NC(=O)N1CCN(c2ccccc2)CC1 [Compound 84, N-(4-chlorobenzyl)-5-(4-phenylpiperazine-1-carboxamido)-1,2,3-thiadiazole-4-carboxamide]	9.4	EC50 (mD4-VV surrogate virus): 10 µM
CCOC(=O)c1c(NC(=O)C(CC)c2ccccc2)sc(C)c1CC (stereo not drawn) [Compound 2, ethyl 4-ethyl-5-methyl-2-(2-phenylbutanamido)thiophene-3-carboxylate]	36.6	
CCC(C(=O)Nc1sc(C(=O)N(CC)CC)c(C)c1C#N)c1ccccc1 (stereo not drawn) [Compound 66, 4-cyano-N,N-diethyl-3-methyl-5-(2-phenylbutanamido)thiophene-2-carboxamide]	42.2	
CCC(C(=O)Nc1sc(C(N)=O)c(C)c1C#N)c1ccccc1 (stereo not drawn) [Compound 9, 4-cyano-3-methyl-5-(2-phenylbutanamido)thiophene-2-carboxamide]	11.3	
CCC(C(=O)Nc1cc(C)ns1)c1ccccc1 (stereo not drawn) [Compound 78, N-(3-methylisothiazol-5-yl)-2-phenylbutanamide]	41.7	
Cc1c(C(N)=O)sc(N(C(=O)C2CCCc3ccccc32)C(=O)C2CCCc3ccccc32)c1C#N (stereo not drawn) [Compound 47, 5-[Bis-(1,2,3,4-tetrahydro-naphthalene-1-carbonyl)-amino]-4-cyano-3-methyl-thiophene-2-carboxylic acid amide]	20	
Cc1c(C(N)=O)sc(NC(=O)C2CCc3cc(Cl)ccc32)c1C#N (stereo not drawn) [Compound 50, 5-[(5-Chloro-indane-1-carbonyl)-amino]-4-cyano-3-methyl-thiophene-2-carboxylic acid amide]	33	
